Experimental data published in patent US20200296959A1, “DISINFECTION AND/OR STERILIZATION OF AGRICULTURAL CROPS” (priority 2019, published 2020).

Test system: Bacillus atrophaeus spore strips
Experiment: Microbial decontamination barrel: sterilization of Steritest biological indicator spore strips
Description: Barrel Setup: All cycles were performed using a 48.8 gallon steel barrel with an airtight lid sealed with a rubber gasket.
Barrels were fitted with an SEC Sensor to monitor EO concentration throughout the cycle
The unit utilizes AN 7916 Anprolene gas release ampoules, which contain approximately 17.6 g of EO. The number of ampoules can be adjusted according to load weight.
Barrels were fitted with an observation chamber containing a chemical integrator, referred to a dosimeter. This allows sterilization progress to be monitored in real time with no disruption to the cycle.
An external recirculating abator cartridge was attached to the lid of the barrel to neutralize EO when the cycle is complete.
Humidichips, a Madgetech Datalogger, and a Steritest biological indicator including a Dosimeter and a Bacillus atrophaeus spore strip, were placed in the bottom of the barrel. An AN 7916 EO 17.6 g ampule was activated then placed in the bottom of the barrel.
Further, paper represents a reasonable proxy for agricultural materials such as hemp and marijuana, as all of these materials are all cellulosic materials.
In this example, the barrel was loaded with 150 lbs of paper. Humidichips, a Madgetech Datalogger, and a Steritest were placed in the middle of the load. The Barrel was filled to the top with cloth materials (which are also cellulosic materials). […]

C1CO1 [ethylene oxide]
ethylene oxide levels sufficient to kill biological surrogates (Bacillus atrophaeus) included with each load (microbial decontamination barrel, each load): sufficient to kill 10^6 biological surrogates | sterilization of Bacillus atrophaeus spore strips contained in the Steritest (seven 2-4 day cycles, 48.8 gallon barrel, 17.6 g EO ampoule, room temperature (around 20° C.), empty and paper loads): successfully sterilized
